# Assay results from publication PMC11256326, “Discovery of Heparin Mimetic, Potent, and Selective Inhibitors of Human Clotting Factor XIIIa” (ACS Omega, 2024).
# Molecular target: T1, rTG-2 (recombinant human tissue transglutaminase-2) (Homo sapiens, UniProt P21980)
# T1 construct: purchased Tocris Bioscience
# T1 sequence (P21980 1-687): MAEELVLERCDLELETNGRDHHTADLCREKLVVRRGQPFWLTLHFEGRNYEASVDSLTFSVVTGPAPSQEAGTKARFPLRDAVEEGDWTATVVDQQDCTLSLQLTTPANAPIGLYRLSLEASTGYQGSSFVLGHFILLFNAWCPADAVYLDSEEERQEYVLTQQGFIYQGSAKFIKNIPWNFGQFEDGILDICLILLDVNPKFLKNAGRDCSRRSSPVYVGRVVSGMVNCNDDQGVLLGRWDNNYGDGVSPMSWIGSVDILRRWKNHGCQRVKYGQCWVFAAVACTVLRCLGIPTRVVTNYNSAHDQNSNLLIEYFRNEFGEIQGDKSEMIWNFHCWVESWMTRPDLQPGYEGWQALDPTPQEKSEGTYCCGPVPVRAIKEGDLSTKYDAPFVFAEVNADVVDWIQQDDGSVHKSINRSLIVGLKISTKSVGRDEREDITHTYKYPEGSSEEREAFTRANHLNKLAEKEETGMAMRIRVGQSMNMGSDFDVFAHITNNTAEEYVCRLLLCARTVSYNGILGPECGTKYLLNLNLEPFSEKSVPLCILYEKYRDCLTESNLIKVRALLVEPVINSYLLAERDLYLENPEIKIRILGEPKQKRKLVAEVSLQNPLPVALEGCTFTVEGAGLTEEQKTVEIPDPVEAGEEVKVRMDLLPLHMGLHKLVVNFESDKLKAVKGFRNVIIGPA
# Assay: bisubstrate, fluorescence-based trans-glutamination assay with recombinant TG-2
# Type: biochemical
# Source text: FXIIIa and TG-2 belong to the same transglutaminase superfamily, and they share similar protein folds with a sequence similarity of 34%. Although we believe that sulfonated heparin mimetics are less likely to distribute to peripheral tissues, we evaluated inhibitor 16′s potential to inhibit TG-2 (we used recombinant TG-2). […] Likewise, we studied the inhibition of papain, a related cysteine protease, by molecule 16.
# Human plasma proteins such as FXIIIa, thrombin, factor Xa, and factor XIa were procured from Haematologic Technologies. Recombinant human TG-2 was sourced from Tocris Bioscience. Their activities were validated according to the supplier’s instructions. Chromogenic substrates for thrombin and factor Xa were acquired from Biomedica Diagnostics, while the factor XIa chromogenic substrate (S-2366) was obtained from Diapharma. Dithiothreitol, N,N-dimethylcasein, and dansylcadaverine were purchased from Sigma Aldrich. Stock solutions of thrombin and factor XIa were prepared in 50 mM Tris-HCl buffer, pH 7.4, containing 150 mM sodium chloride, 0.1% PEG8000, and 0.02% Tween80. The stock solution of factor Xa was prepared in 20 mM Tris-HCl buffer, pH 7.4, containing 100 mM sodium chloride, 0.1% PEG8000, 2.5 mM CaCl2, and 0.02% Tween80. The stock solutions of FXIIIa and rTG-2 were prepared in 50 mM Tris-HCl, 1 mM CaCl2, 100 mM sodium chloride, 0.02% Tween80, 0.1% PEG8000, and 2 mg/mL dimethylcasein. Papain and its chromogenic substrate (N-α-benzoyl-L-arginyl-4-nitroanilide) were obtained from Sigma Aldrich. Papain was prepared in 50 mM Tris-HCl buffer, pH 7.4, containing 100 mM NaCl, 100 mM DTT, 2.5 mM CaCl2, 0.1% PEG8000, and 0.02% Tween80. Human plasma for coagulation assays was obtained from George King Bio-Medica for the clotting assays. Thromboplastin-D (PT reagent), APTT reagent containing ellagic acid, and 0.025 M solution of CaCl2 were obtained from Thermo Fisher Scientific. Results were reproduced at least three times.
# For tissue TG-2, a recombinant protein (rTG-2) was used in a bisubstrate, fluorescence-based trans-glutamination assay involving dansylcadaverine and N,N-dimethylcasein as substrates and under similar conditions used for human FXIIIa above. The activity of rTG-2 was monitored following the addition of 5 μL of dansylcadaverine (2 mM) by measuring the initial rate of increase in fluorescence emission (λEx. = 360 nm and λEm. = 490 nm). Relative residual rTG-2 activity at each concentration of inhibitor 16 was calculated from the ratio of rTG-2 activity in the presence and absence of the inhibitor. Logistic eq 1 was used to fit the concentration dependence of residual rTG-2 activity to obtain the IC50 and ΔY% of inhibition.
smiles,measurement,setting,value
Nc1c(/N=N/c2ccc(S(=O)(=O)CCOS(=O)(=O)O)cc2)c(S(=O)(=O)O)cc2cc(S(=O)(=O)O)c(/N=N/c3ccc(S(=O)(=O)CCOS(=O)(=O)O)cc3)c(O)c12 [compound 16],selectivity for FXIIIa over rTG-2,,9 fold
same,IC50,recombinant TG-2,18.1 ± 3.1 µM
same,rTG-2 HS (Hill slope),recombinant TG-2,2.2 ± 0.9
same,rTG-2 ΔY,recombinant TG-2,86 ± 7%
